Laboratory results: patent publication US20150335615A1, “CHOLESTEROL-LOWERING COMPOUNDS IN COMBINATION WITH LIPID METABOLISM-ALTERING COMPOUNDS OF NON-ABSORBABLE SUGARS, COMPOUNDS THAT CONVERT NH3 TO NH4+, OR HYDROGEN-GENERATING COMPOUNDS FOR THE TREATMENT OF HIGH CHOLESTEROL AND INFLAMMATION” (priority 2013, published 2015)
Entries after “also recorded” stand apart in the source; their conditions may differ.

What was measured:
F. nucleatum = conditions: FIG. 4
Description: Incubate one of the periodontal bacteria for 4 hours with/without hydrogen and measure the hydrogen sulfide concentration.
Culture F. nucleatum (oral bacteria that produce H2S) overnight.
Incubate F. nucleatum in H2 or N2 condition for 4 hours.
Keep supernatant (3 ml) in 15 ml conical tube at 4° C.
Measure the H2S concentration in the conical tube (N=5, 1:10 dilution).

[1] = H2 amount in mice after oral inulin; format: in vivo; conditions: oral administration
rats = conditions: cited from earlier work
LDLR-KO mice [2] = experiment: Serum lipids and Ox-LDL in LDLR-KO mice on western diet (Example 4); format: in vivo; conditions: LDLR-KO mice at 1.5 months and 3 months; FIGS. 10A and 10B
From the text: (§1) Animals: Homozygous LDL receptor knockout (LDLr−/−; C57BL/6) mice were purchased from the Jackson Laboratory (Bar Harbor, Me.). This genetically manipulated mouse strain is most commonly used for the pre-clinical study of high-fat diet induced hyperlipidemia and atherosclerosis. Nine weeks of age mice were separated into five groups (Groups #1-#5) and fed with normal diet (Group #1; Picolab, 5053) or high fat diet (Group #2-#5; HFD; Harlan Teklad, TD 88137) for 12 weeks. Atorvastatin (Lipitor) was added to the HFD (0.16% w/w) to Group #4 and Group #5. Lactulose (3 g/kg/day, in water solution) was orally administered every 12 hours to Group #3 and Group #5. The LDLR-KO mice were fed for three months with a normal or western diet, with or without lactulose, and with or without atorvastatin. Analysis of serum samples: Lipids, including LDL and HDL, as well as oxidized low density lipoprotein (Ox-LDL) present in serum was measured using an ELISA kit (Cell biolabs).

LDLR knockout mice [3] = experiment: Serum lipoproteins (HDL, LDL, Ox-LDL) in LDLR knockout mice on high fat diet (Example 3); format: in vivo
Description: Low density lipoprotein receptor (LDLR) knockout mice and their wild type (C57BL6/J), were purchased from Jackson Laboratories (Bar Harbor, Me., USA). Male LDLR knockout mice (9-w old male) received control standard diet (Picolab, MO, USA; diet #5053) or high fat diet (Tekland Custom Diet, WI, USA; diet #TD88137). The LDLR mice received high fat diet were further randomly divided into four groups; G1) 20 mg/kg day atorvastatin group, G2) 400 mg/day lactulose group, G3) combination group, and G4) negative control group (no atorvastatin or lactulose). Atorvastatin was supplemented in the diet and lactulose was administered by oral gavage, twice a day. Wild type mice were maintained on the standard diet. All mice were fed with above noted respective diet for 12 weeks and sacrificed for post mortal analyses. Blood was collected by heart puncture at left ventricular on the sacrificed mice, followed flushing the blood circulation with PBS, and the aorta and liver lobes were removed for laboratory evaluations. Blood was drawn from heart in the absence of anti-coagulant agents, and the serum was prepared. High-density lipoprotein cholesterol and low-density lipoprotein (LDL) cholesterol were determined by a commercial colorimetric assay (Sigma-Aldrich, MO, USA). Oxidative-LDL was measured by ELISA (Uscn Life Science, TX, USA).

[4] = tested on: patients suffering from minimal hepatic encephalopathy (MHE); conditions: compared to placebo or no intervention; cited from earlier work
[5] = tested on: Substance P and nerve growth factor (NGF); experiment: Pain associated factors (Substance P, NGF) in mice with pregabalin; format: in vivo; conditions: hydrogen generated by lactulose
LDLR-KO mice [6] = experiment: Weight increase of LDLR-KO mice on western diet (Example 4); format: in vivo; conditions: western diet 12 weeks, atorvastatin 0.16% w/w in HFD, lactulose 3 g/kg/day oral, FIG. 9
From the text: as §1, with “atorvastatin.” for “atorvastatin. Analysis of serum samples: Lipids, including LDL and HDL, as well as oxidized low density lipoprotein (Ox-LDL) present in serum was measured using an ELISA kit (Cell biolabs).”

LDLR knockout mice [7] = experiment: Liver histology, fatty liver development in LDLR knockout mice on high fat diet (Example 3); format: in vivo; conditions: LDLR-KO mice, high fat diet 12 weeks; lactulose 400 mg/day oral gavage; FIG. 7
Description: Low density lipoprotein receptor (LDLR) knockout mice and their wild type (C57BL6/J), were purchased from Jackson Laboratories (Bar Harbor, Me., USA). Male LDLR knockout mice (9-w old male) received control standard diet (Picolab, MO, USA; diet #5053) or high fat diet (Tekland Custom Diet, WI, USA; diet #TD88137). The LDLR mice received high fat diet were further randomly divided into four groups; G1) 20 mg/kg day atorvastatin group, G2) 400 mg/day lactulose group, G3) combination group, and G4) negative control group (no atorvastatin or lactulose). Atorvastatin was supplemented in the diet and lactulose was administered by oral gavage, twice a day. Wild type mice were maintained on the standard diet. All mice were fed with above noted respective diet for 12 weeks and sacrificed for post mortal analyses.
Blood was collected by heart puncture at left ventricular on the sacrificed mice, followed flushing the blood circulation with PBS, and the aorta and liver lobes were removed for laboratory evaluations.
Aortas and liver lobes were frozen in OCT compound (Sakura finetek, Japan).
Cryosections of aortas and liver lobes were stained with hematoxylin and eosin. Atherosclerosis legions were evaluated by Oil-Red 0 staining.

Compound: hydrogen
- production of dimethyl sulfide (DMS) (F. nucleatum; F. nucleatum cultured with H2): elevated production
- Hydrogen sulfide (H2S) concentration (F. nucleatum; F. nucleatum incubated in H2 or N2 condition for 4 hours): tends to be reduced

Compound: Inulin
- amount of H2 [1]: elevates

Compound: OC[C@H]1O[C@@H](O[C@@H]2[C@@H](CO)OC(O)(CO)[C@H]2O)[C@H](O)[C@@H](O)[C@H]1O (mixture of isomers) [lactulose]
- incidence of MHE (rats): decreased
- latency of BAEP (rats): normalized
- level of hyper-endotoxemia (rats): significantly lowered
- level of hyperammonemia (rats): significantly lowered
- amount of Ox-LDL in serum (LDLR-KO mice [2]): able to suppress
- amount of HDL (good cholesterol) (LDLR knockout mice [3]; LDLR-KO mice, high fat diet 12 weeks, atorvastatin 20 mg/kg day in diet, lactulose 400 mg/day oral gavage, FIG. 8A): didn't change
- LDL (bad cholesterol) levels (LDLR knockout mice [3]; LDLR-KO mice, high fat diet 12 weeks, atorvastatin 20 mg/kg day in diet, lactulose 400 mg/day oral gavage, FIG. 8B): no effects; also recorded: did not change
- blood Ox-LDL caused by a fat diet (LDLR knockout mice [3]; lactulose by itself, previously found): can suppress
- blood ammonia levels [4]: reduced
- health-related quality of life [4]: improved
- progression to overt hepatic encephalopathy [4]: prevented
- risk of no improvement in neuropsychological tests [4]: reduced
- pregabalin-mediated suppression of pain associated factors (Substance P and nerve growth factor (NGF)) [5]: additive effect
- weight increase (LDLR-KO mice [6]): moderate weight increase; also recorded: suppress weight gain
- fatty liver development (LDLR knockout mice [7]): remarkable preventative effects
